What follows are molecules tested against T1, 5-Lipoxygenase from RBL-1 20,000 xg Supernatant (Rattus norvegicus, UniProt P12527) (assay: In vitro inhibition of 5-lipoxygenase from RBL-1 20,000 xg supernatant). Conditions: radiolabeled arachidonic acid.
T1 construct: supermatant from 1.5 million homogenized RBL-1 cells; endogenous in cells; host or cells: RBL-1 cells, 20,000 x g supernatant of homogenate
T1 sequence (P12527 1-673): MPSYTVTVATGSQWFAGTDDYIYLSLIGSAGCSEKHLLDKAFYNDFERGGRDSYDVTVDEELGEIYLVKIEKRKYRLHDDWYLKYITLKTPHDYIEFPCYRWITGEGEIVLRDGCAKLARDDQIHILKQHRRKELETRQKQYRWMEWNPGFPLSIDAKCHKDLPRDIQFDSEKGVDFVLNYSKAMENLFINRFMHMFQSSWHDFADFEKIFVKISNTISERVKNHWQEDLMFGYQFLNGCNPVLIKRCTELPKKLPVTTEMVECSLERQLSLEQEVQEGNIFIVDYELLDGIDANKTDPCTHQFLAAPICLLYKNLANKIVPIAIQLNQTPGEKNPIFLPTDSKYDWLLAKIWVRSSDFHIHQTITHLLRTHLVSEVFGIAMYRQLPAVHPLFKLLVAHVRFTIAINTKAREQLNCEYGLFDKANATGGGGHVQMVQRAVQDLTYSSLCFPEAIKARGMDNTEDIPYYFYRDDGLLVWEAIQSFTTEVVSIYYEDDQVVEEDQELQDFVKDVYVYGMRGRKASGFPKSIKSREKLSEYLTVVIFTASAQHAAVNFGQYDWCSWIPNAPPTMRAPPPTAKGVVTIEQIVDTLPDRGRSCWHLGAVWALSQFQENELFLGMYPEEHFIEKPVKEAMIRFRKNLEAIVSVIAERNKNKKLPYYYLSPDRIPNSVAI
Format: biochemical
Method: Assays to determine 5-lipoxygenase inhibitory activity were performed in […] incubations containing the 20,000xg supermatant from 1.5 million homogenized RBL-1 cells and various concentrations of the test compound. Reactions were initiated by addition of radiolabeled arachidonic acid and terminated by acidification and ether extraction. Reaction products were separated from nonconverted substrate by thin layer chromatography and measured by liquid scintillation spectroscopy. All incubations are performed in triplicate. Inhibition of 5-lipoxygenase activity was calculated as the ratio of the amount of product formed in the presence and absence of inhibitor. […] (Dyer, R.D.; Haviv, F.; Hanel, A. M.; Bornemier, D. A.; Carter, G. W. Fed. Proc., Fed. Am. Soc. Exp. Biol. 1984, 43, 1462A).

SMILES	IC50
NC(=O)N(O)Cc1cc(Oc2ccc(Cl)cc2)cs1 [Example 158, N-hydroxy-N-[4-(4-chlorophenoxy)thien-2-yl]methyl urea]	0.4 µM
CNC(=O)N(O)Cc1cccc(Oc2ccccc2)c1 [Example 126]	0.8 µM
CNC(=O)N(O)C(C)c1ccc(Br)cc1 (stereo not drawn) [Example 98, N-Hydroxy-N-1-(4-bromophenyl)ethyl-N'-methyl-urea]	1.1 µM
CNC(=O)N(O)C(C)c1ccc(OCc2ccccc2)cc1 (stereo not drawn) [Example 2, N-hydroxy-N-1-(4-phenylmethoxyphenyl) ethyl N'-methyl urea]	0.37 µM
CCCCOc1ccc(C(C)N(O)C(N)=O)cc1 (stereo not drawn) [Example 119, N-Hydroxy-N-(1-(4-butoxyphenyl)ethyl) urea]	0.53 µM
CNC(=O)N(O)Cc1ccc(OCc2ccccc2)cc1 [Example 6, N-hydroxy-N-(4-phenylmethoxyphenylmethyl)-N'-methyl-urea]	0.54 µM
NC(=O)N(O)Cc1sccc1Sc1ccc(F)cc1 [Example 143, N-hydroxy-N-[3-(4-fluorophenylthio)thien-2-yl]methyl urea]	0.3 µM
NC(=O)N(O)Cc1ccc(Sc2ccccc2)s1 [Example 135, N-hydroxy-N-[5-(phenylthio)thien-2-yl]methyl urea]	0.2 µM
CC(C)(C)Sc1ccsc1CN(O)C(N)=O [Example 147, N-hydroxy-N-[3-(tertbutylthio)thien-2-yl]methyl urea]	3.7 µM
NC(=O)N(O)Cc1cc(Oc2ccccc2)cs1 [Example 157, N-hydroxy-N-[4-(phenoxy)thien-2-yl]methyl urea]	0.5 µM
NC(=O)N(O)Cc1ccc(Oc2ccccc2)s1 [Example 155, N-hydroxy-N-[5-(phenoxy)thien-2-yl]methyl urea]	0.7 µM
CC(C)(C)c1ccc(Sc2ccsc2CN(O)C(N)=O)cc1 [Example 144, N-hydroxy-N-[3-(4-tertbutylphenylthio)thien-2-yl]methyl urea]	0.2 µM
CC(c1ccc(OCCc2ccccc2)cc1)N(O)C(N)=O (stereo not drawn) [Example 8, N-hydroxy-N-(1-(4-(2-phenyl)ethoxyphenyl)ethyl) urea]	0.33 µM
CC(C)(C)Sc1ccc(/C=C/CN(O)C(N)=O)s1 [Example 154, N-hydroxy-N-3-[5-(tertbutylthio)thien-2-yl]propenyl urea]	0.2 µM
CC(c1ccc(SC(C)(C)C)s1)N(O)C(N)=O (stereo not drawn) [Example 149, N-hydroxy-N-[1-(5-{terbutylthio}thien-2-yl)ethyl]urea]	0.8 µM
CNC(=O)N(O)C(C)c1ccc(F)cc1 (stereo not drawn) [Example 110, N-Hydroxy-N-(1-(4-fluorophenyl)ethyl)-N'-methyl urea]	2.3 µM

SMILES	IC50
COC(=O)CCCNC(=O)N(O)C(C)c1ccsc1 (stereo not drawn) [Example 61]	2.1 µM
CC(c1cc(Br)cs1)N(O)C(N)=O (stereo not drawn) [Example 132, N-hydroxy-N-[1-(4-bromothien-2-yl)ethyl]urea]	0.9 µM
CC(c1ccc(-c2ccccn2)s1)N(O)C(N)=O (stereo not drawn) [Example 48, N-hydroxy-N-(1-(5-pyrid-2-yl)thien-2-yl)ethyl urea]	1.7 µM
Cc1cc(C(C)N(O)C(=O)NCCO)c(C)s1 (stereo not drawn) [Example 60, N-hydroxy-N-(1-(2,5-dimethylthien-3-yl)ethyl)-N'-(2-hydroxyethyl) urea]	3.5 µM
CNC(=O)N(O)C(C)c1ccc(C)c(Br)c1 (stereo not drawn) [Example 115, N-Hydroxy-N-(1-(3-bromo-4-methylphenyl)ethyl)-N'-methyl urea]	0.6 µM
NC(=O)N(O)Cc1sccc1Br [Example 127, N-hydroxy-N-(3-bromothien-2-yl)methyl urea]	1.2 µM
NC(=O)N(O)Cc1cccc(Oc2ccccc2)c1 [Example 125]	0.4 µM
CNC(=O)N(O)Cc1ccc(C)s1 [Example 52, N-hydroxy-N-1-(5-methylthien-2-yl)methyl-N'-methyl urea]	3.9 µM
COc1ccc(C(C)N(O)C(N)=O)cc1 (stereo not drawn) [Example 116, N-Hydroxy-N-(1-(4-methoxyphenyl)ethyl) urea]	4.4 µM
CNC(=O)N(O)C(C)c1ccc(Cl)cc1 (stereo not drawn) [Example 108, N-Hydroxy-N-(1-(4-chlorophenyl)ethyl)-N'-methyl urea]	0.4 µM
Cc1ccc(CC(C)N(O)C(N)=O)s1 (stereo not drawn) [Example 72, N-Hydroxy-N-(2-(1-(5-methylthien-2-yl))propyl) urea]	0.8 µM
CC(c1ccc(F)c(Br)c1)N(O)C(N)=O (stereo not drawn) [Example 122, N-Hydroxy-N-(1-(3-bromo-4-fluorophenyl)ethyl) urea]	0.8 µM
NC(=O)N(O)Cc1sccc1Sc1ccccn1 [Example 145, N-hydroxy-N-[3-(2-pyridylthio)thien-2-yl]methyl urea]	1.5 µM
NC(=O)N(O)Cc1ccc(Br)s1 [Example 130, N-hydroxy-N-(5-bromothien-2-yl)methyl urea]	0.9 µM
CC(c1ccc(Br)s1)N(O)C(N)=O (stereo not drawn) [Example 133, N-hydroxy-N-[1-(5-bromothien-2-yl)ethyl]urea]	0.9 µM
CCCCOc1cccc(C(C)N(O)C(N)=O)c1 (stereo not drawn) [Example 13, N-hydroxy-N-(1-(3-butoxyphenyl)ethyl) urea]	2.8 µM

Further molecules by falling IC50, results first:

IC50	SMILES
4.43 µM	CNC(=O)N(O)C(C)c1ccc(OC)cc1 (stereo not drawn) [Example 117, N-Hydroxy-N-(1-(4-methoxyphenyl)ethyl)-N'-methyl urea]
4.2 µM	CCOC(=O)CNC(=O)N(O)C(C)c1ccsc1 (stereo not drawn) [Example 62]
3.9 µM	CNC(=O)N(O)C(C)c1ccc(F)cc1F (stereo not drawn) [Example 104, N-Hydroxy-N-(1-(2,4-difluorophenyl)ethyl)-N'-methylurea]
2.5 µM	NC(=O)N(O)Cc1cc(Br)cs1 [Example 128, N-hydroxy-N-(4-bromothien-2-yl)methyl urea]
1.5 µM	NC(=O)N(O)CCCc1ccsc1 [Example 69, N-hydroxy-N-(3-(1-thien-3-yl)propyl) urea]
1 µM	NC(=O)N(O)Cc1sccc1Oc1ccccc1 [Example 156, N-hydroxy-N-[3-(phenoxy)thien-2-yl]methyl urea]
0.99 µM	CCOC(=O)CNC(=O)N(O)C(C)c1cc(C)sc1C (stereo not drawn) [Example 59]
0.9 µM	CNC(=O)N(O)C(C)c1ccc(F)c(Br)c1 (stereo not drawn) [Example 114, N-Hydroxy-N-(1-(3-bromo-4-fluorophenyl)ethyl)-N'-methyl urea]
0.87 µM	CC(c1ccc2ccccc2c1)N(O)C(=O)NO (stereo not drawn) [Example 10, N,N'-dihydroxy-N-(1-(2-naphthyl)ethyl) urea]
0.7 µM	NC(=O)N(O)Cc1sccc1SCc1ccco1 [Example 146, N-hydroxy-N-[3-(2-furfurylmethylthio)thien-2-yl]methyl urea]
0.68 µM	CC(c1ccc(OCc2ccccc2)cc1)N(O)C(=O)N(C)C (stereo not drawn) [Example 3]
0.5 µM	Cc1cc(C(C)N(O)C(N)=O)ccc1Cl (stereo not drawn) [Example 123, N-Hydroxy-N-(1-(4-chloro-3-methylphenyl)ethyl) urea]
0.42 µM	CC(c1ccc(Cc2ccccc2)s1)N(O)C(N)=O (stereo not drawn) [Example 57, N-hydoxy-N-(1-(5-benzylthien-2-yl)ethyl) urea]
0.4 µM	NC(=O)N(O)Cc1csc(Sc2ccccc2)c1 [Example 137, N-hydroxy-N-[5-(phenylthio)thien-3-yl]methyl urea]
0.4 µM	NC(=O)N(O)Cc1sccc1Sc1ccc(O)cc1 [Example 140, N-hydroxy-N-[3-(4-hydroxyphenylthio)thien-2-yl]methyl urea]
0.4 µM	CC(c1ccc(Sc2ccccc2)s1)N(O)C(N)=O (stereo not drawn) [Example 139, N-hydroxy-N-[1-(5-(phenylthio)-thien-2-yl)ethyl]urea]
0.31 µM	CNC(=O)N(O)Cc1ccc(-c2ccccc2)s1 [Example 54, N-hydroxy-N-(1-(5-phenylthien-2-yl)methyl)-N'-methyl urea]
0.3 µM	NC(=O)N(O)Cc1sccc1Sc1ccc(Cl)cc1 [Example 142, N-hydroxy-N-[3-(4-chlorophenylthio)thien-2-yl]methyl urea]
0.3 µM	NC(=O)N(O)Cc1sccc1Sc1ccccc1 [Example 134, N-hydroxy-N-[3-(phenylthio)thien-2-yl]methyl urea]
0.3 µM	CC(C)(C)Sc1ccc(CN(O)C(N)=O)s1 [Example 148, N-hydroxy-N-[5-(tertbutylthio)thien-2-yl]methyl urea]
0.2 µM	NC(=O)N(O)Cc1ccc(-c2ccccc2)s1 [Example 53, N-hydroxy-N-(1-(5-phenylthien-2-yl)methyl) urea]
0.2 µM	NC(=O)N(O)Cc1sccc1Sc1ccc(Br)cc1 [Example 141, N-hydroxy-N-[3-(4-bromophenylthio)thien-2-yl]methyl urea]

From patent US5185363A, “Urea based lipoxygenase inhibiting compounds” (Abbott Laboratories, priority 1991, dated 1993)
